Laboratory results taken from patent publication US20160030416A1, “METHODS OF TREATING B2-BRADYKININ RECEPTOR MEDIATED ANGIOEDEMA” (SHIRE HUMAN GENETIC THERAPIES, INC., priority 2013, published 2016).
Converted amounts (≈) assume the structure as drawn.

Experiments:
[1] = In vitro microsomal stability, mouse; assay type: in vitro ADME; conditions: Mouse (CD-1), Male
Protocol: (§1) In vitro metabolic stability studies were performed to determine hepatic stability in vivo. CFMQ was incubated in liver microsomal preparations from mouse, rat, dog, mini-pig, and humans, as well as an additional study with monkey and human. CFMQ was incubated with human and animal liver microsomes at 0.3 mg/mL at 37° C. for 30 or 60 minutes. Additional reference compounds were incubated as controls. Following incubation, samples were analyzed by HPLC-MS/MS.

[2] = In vitro microsomal stability, rat; assay type: in vitro ADME; conditions: Rat (Wistar)
Protocol: as §1

[3] = Bidirectional permeability in Caco-2 cells; assay type: in vitro ADME, human; conditions: human, 5 μM, 120 minutes
Protocol: (§2) To determine bidirectional permeability, CFMQ was examined in an in vitro incubation assay with […] (Caco-2 cell). CFMQ at 5 μM was dosed to the cell monolayers on the apical side (A-to-B) or basolateral side (B-to-A) and incubated at 37° C. with 5% CO2 for 120 minutes. Permeability of Lucifer Yellow (500 μM) was measured to ensure no damage was inflicted to the cell monolayers during the CFMQ flux period. All samples were assayed by LC-MS/MS using electrospray ionization.

Caco-2 cell = assay: Bidirectional permeability in Caco-2 cells; assay type: in vitro ADME, human
Protocol: as §2

[4] = Pharmacokinetics, single oral gavage, 2 formulations, Wistar and Sprague-Dawley rats; assay type: in vivo; conditions: for AUC(0-inf) / AUC(0-t) / Cmax / Tmax / half-life: rat, plasma, po
Protocol: Pharmacokinetics and gender differences were evaluated with 2 different formulations of CFMQ (HGT3711) in 2 different types of rat models. These attributes were investigated in a single oral gavage study. Male and female Wistar rats (n=3 per dose group) received CFMQ (HGT3711) at 15, […], and or 150 mg/kg. […] The two vehicle formulations evaluated were formulation 1: 10% N-methyl pyrrolidone (NMP): 10% Ethanol: 30% polyethylene glycol (PEG400): 50% […] (lauroyl polyoxylglycerides); and formulation 2: 10% NMP: 0% PEG400: 20% CREMOPHOR EL (Macrogolglycerol ricinoleate): 25% […] 44/14 (lauroyl polyoxylglycerides): 25% CAPROYOL 90 (Propylene Glycol Caprylate).
Blood samples were taken via cardiac puncture prior to administration and at 0.25 (15 min), 0.50 (30 min), 1, 2, 4, 8 and 24 hours post dose. Plasma concentrations of CFMQ (HGT3711) were determined by LC-MS/MS and nominal dosing concentrations were used in all calculations.

[5] = Physicochemical properties of CFMQ
Protocol: The physicochemical properties of 1-((4-Chloro-3-(((4-(4-fluoro-1H-pyrazol-1-yl)-2-methylquinolin-8-yl)oxy)methyl)-6-methylpyridin-2-yl)methyl)-2-oxo-1,2-dihydropyridine-3-carbonitrile (CFMQ) were determined using standard methods. CFMQ was a free base with a molecular weight of 514.9 Da and was a nonhygroscopic, crystalline powder with a melting point of about 214° C.

[6] = female, Sprague-Dawley, 75 mg/kg, Formulation 1, S-D (Female)
[7] = female, Sprague-Dawley, 75 mg/kg, Formulation 2, S-D (Female)
[8] = female, Wistar, 15 mg/kg, Formulation 1, Wistar (Female)
[9] = female, Wistar, 15 mg/kg, Formulation 2, Wistar (Female)
[10] = female, Wistar, 75 mg/kg, Formulation 1, Wistar (Female)
[11] = female, Wistar, 75 mg/kg, Formulation 2, Wistar (Female)
[12] = female, Wistar, 150 mg/kg, Formulation 1, Wistar (Female)
[13] = female, Wistar, 150 mg/kg, Formulation 2, Wistar (Female)
[14] = male, Sprague-Dawley, 75 mg/kg, Formulation 1, S-D (Male)
[15] = male, Sprague-Dawley, 75 mg/kg, Formulation 2, S-D (Male)
[16] = male, Wistar, 15 mg/kg, Formulation 1, Wistar (Male)
[17] = male, Wistar, 15 mg/kg, Formulation 2, Wistar (Male)
[18] = male, Wistar, 75 mg/kg, Formulation 1, Wistar (Male)
[19] = male, Wistar, 75 mg/kg, Formulation 2, Wistar (Male)
[20] = male, Wistar, 150 mg/kg, Formulation 1, Wistar (Male)
[21] = male, Wistar, 150 mg/kg, Formulation 2, Wistar (Male)

% Remaining [30 minutes] ([1]; 30 minutes): 7%
% Remaining [60 minutes] ([1]; 60 minutes): 3%
% Remaining [30 minutes] ([2]; Female): 76%
% Remaining [60 minutes] ([2]; Female): 60%
% Remaining [30 minutes] ([2]; Male): 3%
% Remaining [60 minutes] ([2]; Male): 0%
Papp A→B at 120 min, 5 μM ([3]; apical to basolateral, read-out: permeability coefficient A-to-B): 34 ×10⁻⁶ cm/s
Papp B→A at 120 min, 5 μM ([3]; basolateral to apical, read-out: permeability coefficient B-to-A): 38 ×10⁻⁶ cm/s
efflux (Caco-2 cell): no significant efflux
permeability classification (Caco-2 cell): highly permeable
oral exposure in female rats compared to male rats ([4]; average dose normalized AUC values, both S-D and Wistar): 20-40 times
AUC(0-inf) [4, 6]: 14300 ng·h/mL
AUC(0-t) [4, 6]: 11900 ng·h/mL
Cmax [4, 6]: 2280 ng/mL
Tmax [4, 6]: 0.5 h
half-life [4, 6]: 2.01 h
AUC(0-inf) [4, 7]: 20800 ng·h/mL
AUC(0-t) [4, 7]: 20600 ng·h/mL
Cmax [4, 7]: 2180 ng/mL
Tmax [4, 7]: 0.83 h
half-life [4, 7]: 3.58 h
AUC(0-inf) [4, 8]: 6650 ng·h/mL
AUC(0-t) [4, 8]: 4660 ng·h/mL
Cmax [4, 8]: 1140 ng/mL
Tmax [4, 8]: 0.83 h
half-life [4, 8]: 3.1 h
AUC(0-inf) [4, 9]: 5810 ng·h/mL
AUC(0-t) [4, 9]: 5210 ng·h/mL
Cmax [4, 9]: 592 ng/mL
Tmax [4, 9]: 3.33 h
half-life [4, 9]: 6.08 h
AUC(0-inf) [4, 10]: 11100 ng·h/mL
AUC(0-t) [4, 10]: 11100 ng·h/mL
Cmax [4, 10]: 2550 ng/mL
Tmax [4, 10]: 0.58 h
half-life [4, 10]: 3.13 h
AUC(0-inf) [4, 11]: 11300 ng·h/mL
AUC(0-t) [4, 11]: 10700 ng·h/mL
Cmax [4, 11]: 2200 ng/mL
Tmax [4, 11]: 0.75 h
half-life [4, 11]: 3.12 h
AUC(0-inf) [4, 12]: 9060 ng·h/mL
AUC(0-t) [4, 12]: 8710 ng·h/mL
Cmax [4, 12]: 1850 ng/mL
Tmax [4, 12]: 0.33 h
half-life [4, 12]: 5.42 h
AUC(0-inf) [4, 13]: 6440 ng·h/mL
AUC(0-t) [4, 13]: 6430 ng·h/mL
Cmax [4, 13]: 1580 ng/mL
Tmax [4, 13]: 0.33 h
half-life [4, 13]: 2.64 h
AUC(0-inf) [4, 14]: 435 ng·h/mL
AUC(0-t) [4, 14]: 410 ng·h/mL
Cmax [4, 14]: 187 ng/mL
Tmax [4, 14]: 0.5 h
half-life [4, 14]: 1.96 h
AUC(0-inf) [4, 15]: 745 ng·h/mL
AUC(0-t) [4, 15]: 673 ng·h/mL
Cmax [4, 15]: 191 ng/mL
Tmax [4, 15]: 0.67 h
half-life [4, 15]: 3.43 h
AUC(0-inf) [4, 16]: 229 ng·h/mL
AUC(0-t) [4, 16]: 218 ng·h/mL
Cmax [4, 16]: 77.4 ng/mL
Tmax [4, 16]: 0.5 h
half-life [4, 16]: 1.67 h
AUC(0-inf) [4, 17]: 155 ng·h/mL
AUC(0-t) [4, 17]: 175 ng·h/mL
Cmax [4, 17]: 34.7 ng/mL
Tmax [4, 17]: 0.83 h
half-life [4, 17]: 1.74 h
AUC(0-inf) [4, 18]: 282 ng·h/mL
AUC(0-t) [4, 18]: 243 ng·h/mL
Cmax [4, 18]: 155 ng/mL
Tmax [4, 18]: 0.25 h
half-life [4, 18]: 4.28 h
AUC(0-inf) [4, 19]: 261 ng·h/mL
AUC(0-t) [4, 19]: 219 ng·h/mL
Cmax [4, 19]: 94.9 ng/mL
Tmax [4, 19]: 0.5 h
half-life [4, 19]: 3.35 h
AUC(0-inf) [4, 20]: 397 ng·h/mL
AUC(0-t) [4, 20]: 309 ng·h/mL
Cmax [4, 20]: 277 ng/mL
Tmax [4, 20]: 0.25 h
half-life [4, 20]: 1.63 h
AUC(0-inf) [4, 21]: 260 ng·h/mL
AUC(0-t) [4, 21]: 199 ng·h/mL
Cmax [4, 21]: 119 ng/mL
Tmax [4, 21]: 0.25 h
half-life [4, 21]: 2.43 h
increase in exposure, females compared to males ([4]; within both formulations): > 5 fold
pKa1 [5]: 3.95
pKa2 [5]: 1.70
solubility in acidic environments ([5]; acidic environments): greatly enhanced
solubility in aqueous medium ([5]; aqueous medium): slight solubility
logD ([5]; pH = 7.4): 3.47
solubility ([5]; phosphate buffered saline (PBS), aqueous buffer): 33 µM (≈ 17 µg/mL)
Structure (SMILES): Cc1cc(Cl)c(COc2cccc3c(-n4cc(F)cn4)cc(C)nc23)c(Cn2cccc(C#N)c2=O)n1 [CFMQ, 1-((4-Chloro-3-(((4-(4-fluoro-1H-pyrazol-1-yl)-2-methylquinolin-8-yl)oxy)methyl)-6-methylpyridin-2-yl)methyl)-2-oxo-1,2-dihydropyridine-3-carbonitrile]
adverse reactions ([4]; single oral gavage 15-150 mg/kg, rats): No adverse reactions were observed
